Reference: patent US8975267B2, “Tricyclic pyrrolo derivatives, process for their preparation and their use as kinase inhibitors” (Nerviano Medical Sciences S.r.l., priority 2011, dated 2015)
Structures can show the parent of a compound that is named as a salt.

How the values were obtained:
MPS1 = MPS1 (Homo sapiens (Human), UniProt P33981); test: Biochemical assay for inhibitors of MPS1 kinase activity (trans-phosphorylation, Dowex); conditions: 15 microM ATP, 200 microM P38-βtide substrate, 5 nM MPS1
Description: Cloning, Expression and Purification of Recombinant MPS1 Full Length Protein.
MPS1 full length (corresponding to residues 2-857 of the full length sequence, see Swiss-Prot accession number P33981) was PCR amplified from the full-length human MPS1 gene present in house as clone pGEX4t_MPS1.
To get a fully activated enzyme, the protein was then subjected to auto-phosphorylation in presence of ATP 1 mM at 25° C. for 2 hours in kinase buffer (Hepes pH7.5 50 mM, MgCl2 2.5 mM, MnCl2 1 mM, DTT 1 mM, phosphatase inhibitors); ATP was then removed whit a desalting column.
Biochemical Assay for Inhibitors of MPS1 Kinase Activity
(§1) The inhibitory activity of putative kinase inhibitors and the potency of selected compounds were determined using a trans-phosphorylation assay.
(§2) Specific peptide or protein substrates are trans-phosphorylated by their specific ser-thr or tyr kinase in the presence of ATP traced with ^33P-γ-ATP, and in the presence of their own optimal buffer and cofactors.
At the end of the phosphorylation reaction, more than 98% unlabeled ATP and radioactive ATP is captured by an excess of the ion exchange dowex resin; the resin then settles down to the bottom of the reaction plate by gravity. Supernatant is subsequently withdrawn and transferred into a counting plate, then evaluated by β-counting.
The buffer for MPS1 assay was composed of HEPES 50 mM, at pH 7.5, with 2.5 mM MgCl2, 1 mM MnCl2, 1 mM DTT, 3 microM Na3VO4, 2 mM β-glycerophosphate and 0.2 mg/mL BSA.
The assay was run with a final concentration MPS1 of 5 nM, in the presence of 15 microM ATP and 1.5 nM ^33P-γ-ATP; the substrate was P38-βtide, used at 200 microM.
a) for percent inhibition studies (HTS), individual dilution plates at 1 mM are diluted at a 3× concentration (30 microM) in ddH2O (3% DMSO=final concentration) using a Beckman NX automated pipetting platform. The same instrument is used for distributing the diluted mother plates into the test plates. b) for IC50 determination (KSS platform), 100 microL of each compound at 1 mM in 100% DMSO are transferred from the original plate into the first column of another 96 well plate (A1 to G1); well H1 is left empty for the internal standard inhibitor, usually staurosporine.
An automated station for serial dilutions (Biomek FX, Beckman) is used for producing 1:3 dilutions in 100% DMSO, from line A1 to A10, and for all the seven compounds in the column. Moreover, 4-5 copies of daughter plates are prepared by reformatting 5 microL of this first set of 100% DMSO dilution plates into 384 deep well-plates: one copy of the daughter plates with the serial dilutions of test compounds will be thaw the day of the experiments, reconstituted at a 3× concentration with water and used in the IC50 determination assays. In a standard experiment, the highest concentration (3×) of all compounds is 30 microM, while the lowest one is 1.5 nM.
384-well plates, V bottom (test plates) are prepared with 5 microL of the compound dilution (3×) and then placed onto a PlateTrak 12 robotized station (Perkin Elmer; the robot has one 384-tips pipetting head for starting the assay plus one 96-tips head for dispensing the resin) together with one reservoir for the Enzyme mix (3×) and one for the ATP mix (3×).
At the start of the run, the robot aspirates 5 microL of ATP mix, makes an air gap inside the tips (2 microL) and aspirates 5 microL of MPS1 mix. The following dispensation into the plates allows the kinase reaction to start upon 3 cycles of mixing, done by the robot itself.
The robot incubates the plates for 60 minutes at room temperature, and then stops the reaction by pipetting 70 microL of dowex resin suspension into the reaction mix. Three cycles of mixing are done immediately after the addition of the resin.
Another mixing cycle is performed after all the plates are stopped, this time using normal tips: the plates are then allowed to rest for about one hour in order to maximize ATP capture. […]

PIM-1 = PIM-1 (Homo sapiens (Human), UniProt P11309); test: Biochemical assay for inhibitors of PIM-1 kinase activity (trans-phosphorylation, Dowex); conditions: 200 microM ATP, 25 microM Aktide, 1 nM enzyme
Description: Biochemical Assay for Inhibitors of PIM-1 Kinase Activity
as §1, §2
At the end of the phosphorylation reaction, more than 98% unlabeled ATP and radioactive ATP is captured by an excess of the ion exchange dowex resin; the resin then settles down to the bottom of the reaction plate by gravity.
Supernatant is subsequently withdrawn and transferred into a counting plate, then evaluated by β-counting.
The buffer for PIM-1 assay was composed of HEPES 50 mM, at pH 7.5, with 10 mM MgCl2, 1 mM DTT, 3 microM NaVO3, and 0.2 mg/ml BSA
Full-length human PIM-1 was expressed and purified as described in Bullock A N, et al., J. Biol. Chem. 2005, 280, 41675-82.
ATP concentration: 200 microM
Enzyme concentration: 1 nM
Substrate concentration Aktide (Chemical Abstract Service Registry Number 324029-01-8): 25 microM
For IC50 determination, test compounds are received as a 1 mM solution in 100% DMSO and distributed into 96-well plates: compounds are then plated into the first column of a new 96-well plate (A1 to G1), 100 microL/well.
An automated station (Biomek FX, Beckman) is used for serial dilutions, producing 1:3 dilutions in 100% DMSO, from line A1 to A10, for all the compounds in the column. Moreover, 4-5 copies of daughter plates are prepared by reformatting 5 microL of this first set of 100% DMSO dilution plates into 384-deep well plates: one copy of these serial dilution plates with the test compounds is thawed on the day of study, reconstituted at the working concentration (3-fold the final concentration) with 162 microL/well of water and used for IC50 determination assays. In a standard experiment, the highest concentration (3×) of compounds is typically 30 microM, while the lowest one is typically 1.5 nM.
Each 384-well plate generates at least one curve of the standard inhibitor staurosporine and reference wells (total enzyme activity vs. no enzymatic activity) for evaluation of Z′ and signal to background (S/B) ratio.
384-well plates, V bottom (test plates) are prepared with 5 microL of compound diluted as previously described (3×) and then placed onto a PlateTrak 12 robotized station (Perkin Elmer; the robot has one 384-tip pipetting head for assay start, plus one 96-tip head for dispensing resin) together with one reservoir for Enzyme mix (3×) and one for ATP mix (3×).
Data are analyzed by an internally customized version of the “Assay Explorer” SW package, which provides sigmoidal fitting of the ten-dilution curves for IC50 determination in secondary assay/hit confirmation routines.

PIM-2 = PIM-2 (Homo sapiens (Human), UniProt Q9P1W9); test: PIM-2 kinase inhibition assay: Dowex technique; assay type: biochemical; conditions: 4 microM ATP, 5 microM Aktide, 1.5 nM enzyme
Description: Method for PIM-2 Kinase Inhibition Assay: Dowex Technique
The buffer for PIM-2 assay was composed of HEPES 50 mM, at pH 7.5, with 1 mM MgCl2, 1 mM DTT, 3 microM Na3VO4, and 0.2 mg/mL BSA
Full-length human PIM-2 was expressed and purified as described in Fedorov O, et al., PNAS 2007 104, 51, 20523-28.
Enzyme concentration=1.5 nM
Aktide substrate (Chemical Abstract Service Registry Number 324029-01-8)=5 microM
See above: same procedure as described for PIM-1.

Sequence of MPS1 (P33981 2-857): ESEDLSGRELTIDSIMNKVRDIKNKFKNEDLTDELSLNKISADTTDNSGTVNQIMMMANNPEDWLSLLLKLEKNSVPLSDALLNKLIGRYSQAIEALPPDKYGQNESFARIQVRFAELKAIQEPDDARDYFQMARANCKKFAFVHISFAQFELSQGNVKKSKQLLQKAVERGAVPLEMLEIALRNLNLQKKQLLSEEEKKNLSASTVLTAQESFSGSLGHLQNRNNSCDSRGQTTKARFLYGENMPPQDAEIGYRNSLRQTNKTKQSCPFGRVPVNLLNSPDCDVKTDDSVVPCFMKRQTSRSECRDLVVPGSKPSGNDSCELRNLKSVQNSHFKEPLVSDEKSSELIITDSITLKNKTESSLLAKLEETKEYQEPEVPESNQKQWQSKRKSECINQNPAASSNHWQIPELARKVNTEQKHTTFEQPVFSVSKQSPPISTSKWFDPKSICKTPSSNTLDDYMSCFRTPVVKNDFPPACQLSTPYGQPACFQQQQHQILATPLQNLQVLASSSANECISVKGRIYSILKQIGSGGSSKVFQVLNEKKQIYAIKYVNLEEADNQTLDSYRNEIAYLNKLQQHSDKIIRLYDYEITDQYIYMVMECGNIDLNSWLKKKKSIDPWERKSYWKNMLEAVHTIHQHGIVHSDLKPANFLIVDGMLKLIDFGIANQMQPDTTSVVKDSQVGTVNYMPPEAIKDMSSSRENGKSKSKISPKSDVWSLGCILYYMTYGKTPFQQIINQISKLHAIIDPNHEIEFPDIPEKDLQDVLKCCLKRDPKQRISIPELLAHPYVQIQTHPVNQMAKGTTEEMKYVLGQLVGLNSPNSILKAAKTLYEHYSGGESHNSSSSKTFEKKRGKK
Sequence of PIM-2 (Q9P1W9 whole entry): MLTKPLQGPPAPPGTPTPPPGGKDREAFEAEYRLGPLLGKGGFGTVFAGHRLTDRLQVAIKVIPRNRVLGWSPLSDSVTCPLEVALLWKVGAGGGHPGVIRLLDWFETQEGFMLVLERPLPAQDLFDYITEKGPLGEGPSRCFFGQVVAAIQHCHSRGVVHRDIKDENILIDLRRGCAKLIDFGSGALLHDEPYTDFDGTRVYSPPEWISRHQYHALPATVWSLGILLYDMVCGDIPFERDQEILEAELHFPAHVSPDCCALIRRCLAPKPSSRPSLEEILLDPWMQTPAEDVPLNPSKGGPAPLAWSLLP
Sequence of PIM-1 (P11309 whole entry): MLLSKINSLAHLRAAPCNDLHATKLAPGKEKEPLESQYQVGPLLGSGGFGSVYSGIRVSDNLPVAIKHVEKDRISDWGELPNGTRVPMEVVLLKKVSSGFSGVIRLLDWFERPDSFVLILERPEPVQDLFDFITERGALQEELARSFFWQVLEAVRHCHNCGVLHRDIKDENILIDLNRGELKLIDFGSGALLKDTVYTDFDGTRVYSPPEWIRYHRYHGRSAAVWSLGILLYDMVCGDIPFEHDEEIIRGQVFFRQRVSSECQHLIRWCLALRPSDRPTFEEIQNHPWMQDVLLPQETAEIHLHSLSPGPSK

Row | SMILES | IC50 (MPS1) [nM] | IC50 (PIM-1) [nM] | IC50 (PIM-2) [nM]
1 | CCc1cccc(CC)c1NC(=O)c1c2c(n(C)c1C)-c1nc(Nc3ccc(N4CCC(N5CCCC5)CC4)cc3OC)ncc1CC2 [Compound 3, N-(2,6-diethylphenyl)-2-({2-methoxy-4-[4-(pyrrolidin-1-yl)piperidin-1-yl]phenyl}amino)-8,9-dimethyl-6,9-dihydro-5H-pyrrolo[3,2-h]quinazoline-7-carboxamide] | 99 | > 10000 | > 10000
2 | COc1cc(N2CCN(C)CC2)ccc1Nc1ncc2c(n1)-c1c(c(C(N)=O)c(C)n1C)CC2 [Compound 7, 2-{[2-methoxy-4-(4-methylpiperazin-1-yl)phenyl]amino}-8,9-dimethyl-6,9-dihydro-5H-pyrrolo[3,2-h]quinazoline-7-carboxamide] | 23 | 748 | > 5000
3 | CCc1cccc(CC)c1NC(=O)c1cn(C)c2c1CCCc1cnc(Nc3ccc(N4CCN(C)CC4)cc3OC)nc1-2 [Compound 16, N-(2,6-diethylphenyl)-2-{[2-methoxy-4-(4-methylpiperazin-1-yl)phenyl]amino}-10-methyl-5,6,7,10-tetrahydropyrrolo[3′,2′:6,7]cyclohepta[1,2-d]pyrimidine-8-carboxamide] | 132 | > 10000 | > 10000
4 | CSc1ncc2c(n1)-c1c(c(C(N)=O)cn1C(C)C)CC2 [Compound 22, 2-(methylsulfanyl)-9-(propan-2-yl)-6,9-dihydro-5H-pyrrolo[3,2-h]quinazoline-7-carboxamide] | 382 | 16 | 24
5 | CSc1ncc2c(n1)-c1c(c(C(N)=O)cn1CCO)CC2 [Compound 25, 9-(2-hydroxyethyl)-2-(methylsulfanyl)-6,9-dihydro-5H-pyrrolo[3,2-h]quinazoline-7-carboxamide] | 2440 | 133 | 540
6 | CSc1ncc2ccc3c(C(N)=O)c(C)n(CCO)c3c2n1 [Compound 29, 9-(2-hydroxyethyl)-8-methyl-2-(methylsulfanyl)-9H-pyrrolo[3,2-h]quinazoline-7-carboxamide] | 2940 | 87 | 408
7 | CSc1ncc2ccc3c(C(N)=O)c(C)n(C(C)C)c3c2n1 [Compound 30, 8-methyl-2-(methylsulfanyl)-9-(propan-2-yl)-9H-pyrrolo[3,2-h]quinazoline-7-carboxamide] | 622 | 4 | 12
8 | CSc1ncc2c(n1)-c1c(c(C(N)=O)cn1C1CCNCC1)CC2 [Compound 32, 2-(methylsulfanyl)-9-(piperidin-4-yl)-6,9-dihydro-5H-pyrrolo[3,2-h]quinazoline-7-carboxamide hydrochloride] | > 10000 | 74 | 159
9 | CSc1ncc2c(n1)-c1c(c(C(N)=O)cn1[C@H]1CC[C@@H](N)CC1)CC2 [Compound 33, 9-(cis 4-aminocyclohexyl)-2-(methylsulfanyl)-6,9-dihydro-5H-pyrrolo[3,2-h]quinazoline-7-carboxamide hydrochloride] | 1550 | 5 | 7
10 | CSc1ncc2ccc3c(C(N)=O)cn([C@H]4CC[C@@H](N)CC4)c3c2n1 [Compound 34, 9-(cis-4-aminocyclohexyl)-2-(methylsulfanyl)-9H-pyrrolo[3,2-h]quinazoline-7-carboxamide] | 855 | 0.8 | 1
11 | CSc1ncc2ccc3c(C(N)=O)cn(C4CCNCC4)c3c2n1 [Compound 35, 2-(methylsulfanyl)-9-(piperidin-4-yl)-9H-pyrrolo[3,2-h]quinazoline-7-carboxamide] | 4550 | 7 | 23
12 | CSc1ncc2ccc3c(C(N)=O)c[nH]c3c2n1 [Compound 36, 2-(methylsulfanyl)-9H-pyrrolo[3,2-h]quinazoline-7-carboxamide] | 814 | 13 | 46
13 | CSc1ncc2ccc3c(C(N)=O)cn(CC(C)(C)CN)c3c2n1 [Compound 38, 9-(3-amino-2,2-dimethylpropyl)-2-(methylsulfanyl)-9H-pyrrolo[3,2-h]quinazoline-7-carboxamide hydrochloride] | 2940 | 24 | 34
14 | Cn1cc(C(N)=O)c2c1-c1nc(N)ncc1CC2 [Ref. cmpound 1, 2-amino-9-methyl-6,9-dihydro-5H-pyrrolo[3,2-h]quinazoline-7-carboxamide, reference compound] | > 10000 | > 10000 | > 10000
15 | NC(=O)c1c(-c2ccccc2)[nH]c2c1ccc1cnc(N)nc12 [compound 2, 2-amino-8-phenyl-9H-pyrrolo[3,2-h]quinazoline-7-carboxamide, reference compound] | > 5000 | > 5000 | > 10000
16 | Cn1c2c(c(C(N)=O)c1-c1ccccc1)CCc1cnc(N)nc1-2 [compound 3, 2-amino-9-methyl-8-phenyl-6,9-dihydro-5H-pyrrolo[3,2-h]quinazoline-7-carboxamide, reference compound] | > 5000 | > 5000 | > 10000
17 | Cn1c(-c2ccccc2)c(C(N)=O)c2ccc3cnc(N)nc3c21 [compound 4, 2-amino-9-methyl-8-phenyl-9H-pyrrolo[3,2-h]quinazoline-7-carboxamide, reference compound] | > 5000 | > 5000 | > 10000
